Patent US20240140947A1, “COMPOUND FOR THE TREATMENT OF CANCER” (priority 2022, published 2024)
Read-outs that look alike come from different tables or passages of the source.

Assays:
[1] = system: MCF7 PalboR; assay: Cell proliferation assay (CYQUANT, 7 days), MCF7 PalboR; assay type: cell-based; settings: Homo sapiens, read-out: IC50 ± SEM, proliferation inhibition
Method: (§1) Cellular CDK activity of Compound 1 and PF-06873600 were assessed in human CCNE1-amplified ovarian cancer cell line model OVCAR3 and human ER+ breast cancer cell line model MCF7 cells. […] OVCAR3 cells were treated overnight with 1 mM hydroxyurea to enrich for G1/S phase cells prior to treatment with inhibitors. Functional effects were measured in a 7-day anti-proliferation assay in one human ovarian cancer (OVCAR3), two human ER+ breast cancer (MCF7 and T47D) and three human non-small cell lung cancer (NCIH2087, NCIH358 and A549) cell line models.
(§2) OVCAR3, MCF7, T47D, HCC1428, NCIH2087, NCIH358 or A549cells were seeded 1-3000 cells/well in 96-well plates in growth media containing 10% FBS and cultured overnight at 37° C. 5% CO2. […] CYQUANT Direct Cell Proliferation Assay (Molecular Probes, Eugene, OR) was then performed following manufacturer recommendations to determine the relative viable cell numbers on the Perkin Elmer Envision 2104 Multi Label Reader at 508 nm excitation and 527 nm emission wavelengths. IC50 values were calculated by concentration-response curve fitting utilizing a four-parameter analytical method using GraphPad Prism software.
(§3) The effect of Compound 1 on cell proliferation was assessed in multiple ER+ breast cancer cell lines, including parental and palbociclib resistant cell lines.

[2] = Prediction of human clearance, volume of distribution and elimination half-life; settings: for Mean Vdss unbound: (mean animal Vdss unbound values): Wistar-Hannover (rat), rat and/or dog, iv; for CLb: predicted total clearance: scaled from CLint HHEP and fub, Q=20 ml/min/kg
Method: To determine and compare the predicted human elimination half-lives, compounds 1-4 were evaluated for their human blood-to-plasma partition ratio (BPR) along with other key in vitro ADME data including metabolic stability in human hepatocytes (CL, nt HHEP).
The predicted total clearance in human (CLb) was first determined based on the in vitro human metabolism data shown below using the equation:
CLb=(Q·fub·CLintHHEP)/[(Q+fub)·CLintHHEP]
(Scaling Clint HHEP from μl/min/M to ml/min/kg based on hepatocellularity (120×10^6/ g liver), g of liver per Kg bodyweight (21g/Kg), assuming hepatocyte binding is negligible and liver blood flow Q=20 ml/min/kg.)
The projected human volume of distribution at steady state in human blood (Vdss_human) was then calculated based on the animal (rat and/or dog) PK data. The Vdss_human was calculated factoring in differences in blood binding across compounds. Due to the high blood-to-plasma partition ratio in Compounds 1 and 4, the corresponding Vdss_human was limited to the blood volume with Vdss_human estimated to be 0.07 L/Kg.
Using the estimates of CLb and Vdss_human, the predicted human elimination half-lives of compounds 1-4 were calculated according to the equation:
Half-life=0.693·Vdss_human/CLb

[3] = system: MCF7 parental; assay: Cell proliferation assay (CYQUANT, 7 days), MCF7 parental; assay type: cell-based; settings: Homo sapiens, read-out: IC50 ± SEM, proliferation inhibition
Method: as §1
as §2, with “CO2. The following day, compounds were serially diluted from a 10 mM top dose for an 11-point 3-fold dilution curve in DMSO.” for “CO2.”

[4] = Dog i.v. pharmacokinetic study; assay type: in vivo; settings: for Vd: dog, plasma, iv, 0.1 mg/kg, male Beagle dogs, read-out: Dog Vdss
Method: Dog PK studies were done at Pfizer (Groton, CT); animal care and in vivo procedures were conducted according to guidelines from the Pfizer Institutional Animal Care and Use Committee. Male Beagle dogs were purchased from Marshall BioResources (North Rose, New York) and were typically 1-5 years of age at the time of dosing. Compounds were administered i.v. via the cephalic vein (n=2), dosed as a solution using standard compatible excipients at 0.5 mL/kg for a resulting dose of 0.1 mg/kg. Serial blood samples were collected via the jugular vein at predetermined timepoints after dosing. Animals were monitored for pain or distress throughout the study, with at least daily monitoring during normal husbandry prior to study start. Blood samples were collected into tubes containing K3EDTA and stored on ice until centrifugation to obtain plasma, which was stored frozen at −20° C. or lower. Urine samples were collected at room temperature and stored frozen at −20° C. or lower at the end of each time interval. Plasma samples from the animal PK studies were processed using protein precipitation with acetonitrile: methanol (1:1) containing internal standard verapamil followed by quantitation by LC-MS/MS against a standard curve prepared in blank plasma. Pharmacokinetic parameters were calculated using noncompartmental analysis (Watson v.7.5, Thermo Scientific).

[5] = system: HCC1428 parental; assay: Cell proliferation assay (CYQUANT, 7 days), HCC1428 parental; assay type: cell-based; settings: Homo sapiens, read-out: IC50 ± SEM, proliferation inhibition
Method: (§4) OVCAR3, MCF7, T47D, HCC1428, NCIH2087, NCIH358 or A549cells were seeded 1-3000 cells/well in 96-well plates in growth media containing 10% FBS and cultured overnight at 37° C. 5% CO2. The following day, compounds were serially diluted from a 10 mM top dose for an 11-point 3-fold dilution curve in DMSO. Compound 1 and PF-06873600 were intermediately diluted 1:200 into growth media prior to diluting 1:5 on cells for final concentration 10 μM to 0.1 nM in 0.1% DMSO on cells. Cells were incubated at 37° C. 5% CO2 for 7 days. CYQUANT Direct Cell Proliferation Assay (Molecular Probes, Eugene, OR) was then performed following manufacturer recommendations to determine the relative viable cell numbers on the Perkin Elmer Envision 2104 Multi Label Reader at 508 nm excitation and 527 nm emission wavelengths. IC50 values were calculated by concentration-response curve fitting utilizing a four-parameter analytical method using GraphPad Prism software.
as §3

[6] = Human blood binding (fub = fup/BPR); assay type: in vitro ADME; settings: fup divided by BPR
Method: Compound 1 has been evaluated according to methods well known in the art, for its ability to partition between human plasma and blood. Based on the observed partitioning and plasma protein binding, the blood binding was estimated based on human blood unbound fraction (fub)=human plasma unbound fraction (fup)/human blood-to-plasma partition ratio (BPR). Human blood unbound fraction (fub) was calculated by dividing fup by BPR.

[7] = system: T47D PalboR; assay: Cell proliferation assay (CYQUANT, 7 days), T47D PalboR; assay type: cell-based; settings: Homo sapiens, 168 h, read-out: IC50 ± SEM, proliferation inhibition
Method: as §1, §2, §3

[8] = system: NCIH2087; assay: Cell proliferation assay (CYQUANT, 7 days), NCIH2087; assay type: cell-based; settings: Homo sapiens, NCI-H2087, 168 h, read-out: IC50 ± SEM, proliferation inhibition
Method: as §1
as §2, with “CO2. The following day, compounds were serially diluted from a 10 mM top dose for an 11-point 3-fold dilution curve in DMSO.” for “CO2.”

[9] = system: HCC1428 PalboR; assay: Cell proliferation assay (CYQUANT, 7 days), HCC1428 PalboR; assay type: cell-based; settings: Homo sapiens, read-out: IC50 ± SEM, proliferation inhibition
Method: as §4, §3

| Structure (SMILES) | IC50 ([1]; MCF7, 168 h) | Mean Vdss unbound: (mean animal Vdss unbound values) [2] | Vdss—human: projected volume of distribution (steady state) ([2]; human) | CLb: predicted total clearance ([2]; human) | IC50 ([3]; MCF7, 168 h) | Dog Vdss unbound: (Dog Vdss/dog plasma fu) [4] | Vd [4] | IC50 ([5]; HCC1428, 168 h) | fraction unbound [6] | IC50 ([7]; T47D) | IC50 [8] | IC50 ([9]; HCC1428, 168 h) | IC50 ([1]; 168 h, MCF7 PalboR, 7 days, mean) | (adjusted) predicted t1/2 based on PF-06873600's observed t1/2 ([2]; human) | Vdss—human limited to the blood volume (lower limit) ([2]; human) | IC50 ([3]; 168 h, MCF7 parental, 7 days, mean) | IC50 ([5]; 168 h, HCC1428 parental, 7 days, mean) | IC50 ([7]; T47D PalboR, 7 days, mean) | IC50 ([8]; NCIH2087, 7 days, mean) | IC50 ([9]; 168 h, HCC1428 PalboR, 7 days, mean) |
| --- | --- | --- | --- | --- | --- | --- | --- | --- | --- | --- | --- | --- | --- | --- | --- | --- | --- | --- | --- | --- |
| C[C@@]1(O)CCC[C@H]1n1c(=O)c(C(F)F)cc2cnc(NC3CCN(S(C)(=O)=O)CC3)nc21 [Compound 2, reference compound] | 0.111 ± 0.0561 µM | 2.8 L/kg | 0.9 L/kg | 1.5 mL/min/kg | 0.0386 ± 0.0102 µM | 2.8 L/kg | 1.1 L/kg | 0.0967 ± 0.0264 µM | 0.32 | 0.253 ± 0.0551 µM | 0.0798 µM | 0.269 ± 0.0639 µM |  |  |  |  |  |  |  |  |
| C[C@@]1(O)CCC[C@H]1n1c(=O)c(CC(F)F)cc2cnc(NC3CCN(S(N)(=O)=O)CC3)nc21 [Compound 1, 4-({6-(2,2-difluoroethyl)-8-[(1R,2R)-2-hydroxy-2-methylcyclopentyl]-7-oxo-7,8-dihydropyrido[2,3-d]pyrimidin-2-yl}amino)piperidine-1-sulfonamide] |  | 8.8 L/kg | 0.019 L/kg L/Kg | 0.011 mL/min/kg |  | 6.7 L/kg | 1.5 L/kg |  | 0.0022 |  |  |  | 0.0373 ± 0.0028 µM | 34 h | 0.07 L/kg | 0.0168 ± 0.0067 µM | 0.0143 ± 0.0044 µM | 0.0657 ± 0.0088 µM | 0.04 ± 0.0068 µM | 0.0614 ± 0.0049 µM |
